PubChem BioAssay AID651630 (Sanford-Burnham Center for Chemical Genomics, 2012)
The source made the active and inactive calls.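 How the source made its calls: active means lipid-stain IC50 at or below a set limit, with nuclear-stain toxicity IC50 at least five times higher; inactive means the rest.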

Tests used:
DAPI = assay: TAG lipid buildup inhibition with viability readout – cell-based, panel, Nile Red and DAPI fluorescence, H9c2, dose response (AID 651630); conditions: H9c2 cells, DAPI nuclear fluorescence (cytotoxicity counter-readout), oleic acid;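 further: cells exposed to compound overnight before fixation and staining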
TAG = assay: as above; conditions: H9c2 cells, Nile Red TAG fluorescence, oleic acid

SMILES	IC50 cytotoxicity (DAPI nuclear signal decrease) (DAPI; mean of runs)	IC50 cytotoxicity (DAPI nuclear signal decrease) (DAPI; run 1) [µM]	IC50 cytotoxicity (DAPI nuclear signal decrease) (DAPI; run 2) [µM]	IC50 (TAG; run 1) [µM]	IC50 (TAG; run 2) [µM]	IC50 (TAG; mean of runs)
CCOc1ccc(CN(C)C(=O)CCl)cc1	> 25 µM (inactive)	> 25	> 25	> 25	22.6	–
COc1cc(-c2cc(NC=O)c3ncc(-c4cccc(C(=O)N(C)C)c4)n3c2)cc(OC)c1OC	> 25 µM (inactive)	> 25	> 25	5.06	12.7	8.89 µM
COc1cc2nc(NCCCN3CCN(C)CC3)n3nc(-c4ccccc4)nc3c2cc1OC	> 25 µM (inactive)	> 25	> 25	> 25	> 25	> 25 µM (inactive)
CCOC(=O)c1cc(-c2ccncc2)nc2c1c(C)nn2-c1ccccn1	> 25 µM (inactive)	> 25	> 25	14.1	> 25	–
CC(C)(C)OC(=O)N(CCc1ccccc1)Cc1ccc(OCc2cccc(NC(=O)/C=C/c3ccccc3)c2)cc1	> 25 µM (inactive)	> 25	> 25	7.99	7.28	7.63 µM
COc1cc(-c2nnc3n2N=C(c2ccccc2)CS3)cc(OC)c1OC	> 25 µM (inactive)	> 25	> 25	14.9	12	13.4 µM
COc1cc(/C=C/CN2CCC(C(=O)NC(c3ccc(F)cc3)c3ccc4ccccc4n3)CC2)ccc1OC(C)=O (centres undefined)	> 25 µM (inactive)	> 25	> 25	13.3	9.99	11.6 µM
O=C(NCC(c1ccc(F)cc1)N1CCOCC1)c1ccc([N+](=O)[O-])o1 (centres undefined)	19.7 µM (inactive)	19.7	19.6	> 25	> 25	> 25 µM (inactive)
Cc1cc(NC(=O)c2sccc2C)n(-c2nc3ccccc3[nH]2)n1	> 25 µM (inactive)	> 25	> 25	19.9	20.9	20.4 µM (inactive)
Cc1cccc2c(C(=O)N3CCN(c4ccccc4)CC3)cc(-c3ccncc3)nc12	> 25 µM (inactive)	> 25	> 25	7.82	8.31	8.06 µM
O=[N+]([O-])c1cccc(S(=O)(=O)N2CN(c3ccc(Br)cc3)c3nc4ccccc4nc32)c1	> 25 µM (inactive)	> 25	> 25	8.4	8.34	8.37 µM
Cc1cccc(C(=O)N[C@H](C(=O)Nc2ncc(C)s2)C(C)C)c1	–	22.9	> 25	9.74	8.97	9.36 µM
CCOC(=O)C1=C(C)N(C[C@@H]2CC[C@@H](Cc3ccc(-c4ccccc4)cc3)O2)C(=O)NC1c1cccc2ccccc12 (some centres undefined)	> 25 µM (inactive)	> 25	> 25	14	13.2	13.6 µM
COc1cc2c(c(OC)c1OC)-c1ccc(OC)c(=O)cc1C(NC(=O)c1ccccc1)CC2 (centres undefined)	> 25 µM (inactive)	> 25	> 25	12.2	> 25	–
COc1ccc(NC(=O)C2(C)Cc3c(-c4cccc(C(N)=O)c4)ccnc3O2)cc1 (centres undefined)	> 25 µM (inactive)	> 25	> 25	> 25	12.1	–
CCCOC(=O)c1ccc(NC(=O)CCOc2ccccc2)cc1	> 25 µM (inactive)	> 25	> 25	18.2	24.7	21.5 µM (inactive)
CC(=O)OCC(=O)[C@@]12OC3(CCCC3)O[C@@H]1C[C@H]1[C@@H]3CCC4=CC(=O)C=C[C@]4(C)[C@@]3(F)[C@@H](O)C[C@@]12C	–	> 25	> 25	2.71	2.95	2.83 µM

SMILES	IC50 cytotoxicity (DAPI nuclear signal decrease) (DAPI; mean of runs)	IC50 cytotoxicity (DAPI nuclear signal decrease) (DAPI; run 1) [µM]	IC50 cytotoxicity (DAPI nuclear signal decrease) (DAPI; run 2) [µM]	IC50 (TAG; run 1) [µM]	IC50 (TAG; run 2) [µM]	IC50 (TAG; mean of runs)
CN1CSC(=S)N(C)C1	> 25 µM (inactive)	> 25	> 25	> 25	> 25	> 25 µM (inactive)
CCCCCCC(C)(C)c1ccc([C@@H]2C[C@H](O)CC[C@H]2CCCO)c(O)c1	22 µM (inactive)	23.7	20.2	7.71	10.9	9.3 µM
O=[N+]([O-])c1ccc(Nc2nc(NC3CCCCC3)nc(N3CCCC3)n2)cc1	> 25 µM (inactive)	> 25	> 25	> 25	11.1	–
COc1ccc(-c2nc(-c3ccccc3)c(-c3cc([N+](=O)[O-])ccc3C)[nH]2)cc1OC	> 25 µM (inactive)	> 25	> 25	12	13.9	12.9 µM
COc1cccc(-c2cc(C(=O)Nc3ccc(N(C)C(C)=O)cc3)c3cc(Br)ccc3n2)c1	> 25 µM (inactive)	> 25	> 25	11.7	12.9	12.3 µM
O=C(Nc1ccccc1)c1nc[nH]c1C(=O)NCCCCCCNC(=O)c1[nH]cnc1C(=O)Nc1ccccc1	> 25 µM (inactive)	> 25	> 25	24.9	> 25	–
Fc1cccc(Nc2nc(-c3ccncc3)nc3ccccc23)c1	> 25 µM (inactive)	> 25	> 25	> 25	> 25	> 25 µM (inactive)
COc1cccc(/C=N/NC(=O)CSc2cccc3cccnc23)c1	> 25 µM (inactive)	> 25	> 25	> 25	> 25	> 25 µM (inactive)
CC(C)(C)OC(=O)[C@H](Cc1ccccc1)NC(=O)c1ncn2c1c(=O)[nH]c1ccc(Br)cc12	> 25 µM (inactive)	> 25	> 25	12	11.6	11.8 µM
CCOc1ccccc1-c1nc(-c2ccc(NC(=O)Cc3ccccc3OC)cc2)no1	> 25 µM (inactive)	> 25	> 25	> 25	> 25	> 25 µM (inactive)
C=C1c2nc3ccccc3n2C=C(c2ccc(C)cc2)N1c1ccccc1	> 25 µM (inactive)	> 25	> 25	10.9	22.2	16.5 µM (inactive)
CN(C)CCNC(=O)C(=O)Nc1ccc2c(c1)N(S(=O)(=O)c1cccs1)CCC2	> 25 µM (inactive)	> 25	> 25	> 25	> 25	> 25 µM (inactive)
COc1ccc([C@H]2C[C@H](O)[C@@H](n3cc(-c4ccc(F)cc4)nn3)CN2Cc2cccs2)cc1	–	23.6	> 25	12.2	24.3	18.3 µM (inactive)
CC(=O)Nc1cccc(-c2ccnc3c2CC(C)(C(=O)NCc2ccc(N(C)C)cc2)O3)c1 (centres undefined)	> 25 µM (inactive)	> 25	> 25	14.7	15.5	15.1 µM (inactive)
O=[N+]([O-])c1cc(S(=O)(=O)Nc2cccc(Cl)c2)ccc1N/N=C/c1ccc(N2CCOCC2)cc1	> 25 µM (inactive)	> 25	> 25	12.5	14.7	13.6 µM
c1cc(C2CCCCC2)ccc1Oc1nc(N2CCOCC2)nc(N2CCOCC2)n1	> 25 µM (inactive)	> 25	> 25	> 25	> 25	> 25 µM (inactive)
COCCN1Cc2cccc(C(=O)Nc3cccc(-c4nc5ccccc5[nH]4)c3)c2C1=O	–	> 25	> 25	1.26	2.66	1.96 µM
